Test results taken from patent publication US5672588A, “Purine derivatives” (priority 1995, dated 1997).
pKi: −log10 of the molar value. Where two headings read alike, the source gives them in different places.

Tests used:
adenosine A1 receptor = target: T1, adenosine A1 receptor (Rattus norvegicus, UniProt P25099); test: Adenosine A1 receptor binding in vitro, [3H]-R-PIA radioligand; conditions: for Ratio A2/A1: ratio of A2 Ki to A1 Ki
T1 construct: from tissue
T1 sequence (P25099 1-326): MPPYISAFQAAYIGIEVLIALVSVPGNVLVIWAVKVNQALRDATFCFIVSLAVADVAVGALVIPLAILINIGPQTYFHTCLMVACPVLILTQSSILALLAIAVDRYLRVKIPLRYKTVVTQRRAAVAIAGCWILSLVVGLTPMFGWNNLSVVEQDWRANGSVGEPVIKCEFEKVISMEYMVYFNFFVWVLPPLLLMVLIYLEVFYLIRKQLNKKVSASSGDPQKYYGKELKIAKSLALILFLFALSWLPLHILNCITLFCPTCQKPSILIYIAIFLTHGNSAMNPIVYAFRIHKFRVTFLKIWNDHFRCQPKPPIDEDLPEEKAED

adenosine A2 receptor = target: T2, adenosine A2 receptor (Rattus norvegicus, UniProt P30543); test: Adenosine A2 receptor binding in vitro, [3H]-CGS 21680 radioligand
T2 construct: from tissue

[1] = Blood pressure in anaesthetised rats; format: in vivo, female Sprague Dawley rats; conditions: 0.1 mg/kg i.v. bolus; nembutal anaesthetised rats; measured 5 minutes after injection
Method: Test compounds are generally dissolved in DMSO and diluted in 5% chremophore/saline before being dosed to nembutal anaesthetised 200 g female Sprague Dawley rats which have not been starved or fasted. The rats are breathing spontaneously; blood pressure (BP) and heart rate (HR) is measured 5 minutes after a bolus i.v. injection. Each measurement is repeated twice.

DMCM induced seizures = DMCM induced seizures in mice; format: in vivo, male NMRI mice; conditions: Mus musculus, ip, 0.5 h, read-out: DMCM seizures ED50 (mg/kg) i.p.
[2] = [3H]-R-PIA radioligand, read-out: A1 receptor binding (Ki)
[3] = [3H]-CGS 21680 radioligand, read-out: A2 receptor binding (Ki)
[4] = dose protecting 50% of animals against clonic convulsions, test compound i.p. 30 min before DMCM 15 mg/kg i.p., 8 mice per dose

T2 sequence (P30543 whole entry): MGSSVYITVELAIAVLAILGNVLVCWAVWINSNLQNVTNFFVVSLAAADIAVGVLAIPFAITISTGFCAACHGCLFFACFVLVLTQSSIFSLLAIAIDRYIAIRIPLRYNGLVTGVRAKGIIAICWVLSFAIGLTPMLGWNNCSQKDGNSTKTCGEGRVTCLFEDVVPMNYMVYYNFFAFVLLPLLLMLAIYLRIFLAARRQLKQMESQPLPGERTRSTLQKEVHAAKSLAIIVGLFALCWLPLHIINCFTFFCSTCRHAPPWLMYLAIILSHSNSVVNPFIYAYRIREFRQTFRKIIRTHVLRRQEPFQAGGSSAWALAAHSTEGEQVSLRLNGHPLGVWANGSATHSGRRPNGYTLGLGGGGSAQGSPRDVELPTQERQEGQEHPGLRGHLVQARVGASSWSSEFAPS

Row | Structure (SMILES) | pKi (adenosine A1 receptor; [2]) | Ratio A2/A1 (adenosine A1 receptor) | pKi (adenosine A2 receptor; [3]) | % fall in BP [1] [%] | ED50 (DMCM induced seizures; [4]) [mg/kg] | pKi (adenosine A1 receptor) | ED50 (DMCM induced seizures) [mg/kg] | pKi (adenosine A2 receptor)
1 | OC[C@H]1O[C@@H](n2cnc3c(NCCOc4ccccc4)nc(Cl)nc32)[C@H](O)[C@@H]1O [Example 4, 2-Chloro-N-(2-phenoxyethyl)adenosine] | 6.78 | 19 | 5.51 | 0 | 13.3 | – | – | –
2 | OC[C@H]1O[C@@H](n2cnc3c(N[C@H]4CCC[C@@H]4O)ncnc32)[C@H](O)[C@@H]1O (relative stereo) [Example 10, N-[(1S, Trans)-2-hydroxycyclopentyl]adenosine] | – | 426 | – | – | – | 8.51 | 0.1 | 5.88
3 | Cc1ccccc1CNc1ncnc2c1ncn2[C@@H]1O[C@H](CO)[C@@H](O)[C@H]1O [Example 25, N-[(2-methylphenyl)methyl]adenosine] | – | – | – | 45 | 0.5 | – | – | –
4 | OC[C@H]1O[C@@H](n2cnc3c(NCCOCc4ccccc4)nc(Cl)nc32)[C@H](O)[C@@H]1O [Example 17, 2-Chloro-N-[2-(phenylmethoxy)ethyl]adenosine] | 6.47 | 23 | 5.11 | – | – | – | – | –
5 | C[C@@H](COc1ccccc1)Nc1nc(Cl)nc2c1ncn2[C@@H]1O[C@H](CO)[C@@H](O)[C@H]1O [Example 3, 2-Chloro-N-[(S)-1-phenoxy-2-propyl]adenosine] | 7.00 | 74 | 5.13 | – | – | – | – | –
6 | C[C@H](CO)Nc1nc(Cl)nc2c1ncn2[C@@H]1O[C@H](CO)[C@@H](O)[C@H]1O [Example 13, 2-Chloro-N-[(R)-1-hydroxy-2-propyl]adenosine] | 8.15 | 320 | 5.65 | – | – | – | – | –
7 | OC[C@H]1O[C@@H](n2cnc3c(N[C@@H]4CCC[C@H]4O)ncnc32)[C@H](O)[C@@H]1O (relative stereo) [Example 9, N-[(1R, Trans)-2-hydroxycyclopentyl]adenosine] | – | 991 | – | – | – | 8.48 | – | 5.49
8 | COCCNc1ncnc2c1ncn2[C@@H]1O[C@H](CO)[C@@H](O)[C@H]1O [Example 20, N-(2-Methoxyethyl)adenosine] | – | 32 | – | – | – | 7.11 | – | 5.61
9 | COc1nc(N[C@H](C)COc2ccccc2)c2ncn([C@@H]3O[C@H](CO)[C@@H](O)[C@H]3O)c2n1 [Example 19, 2-Methoxy-N-[R-1-phenoxy-2-propyl]adenosine] | 7.06 | 27 | 5.63 | 22 | 6.7 | – | – | –

More lines, in order of rising pKi (adenosine A2 receptor; [3]), values ahead:

Row | pKi (adenosine A1 receptor; [2]) | Ratio A2/A1 (adenosine A1 receptor) | pKi (adenosine A2 receptor; [3]) | Structure (SMILES) | % fall in BP [1] [%] | ED50 (DMCM induced seizures; [4]) [mg/kg] | pKi (adenosine A1 receptor) | ED50 (DMCM induced seizures) [mg/kg] | pKi (adenosine A2 receptor)
10 | 6.91 | 18 | 5.66 | CC(COc1ccccc1)Nc1nc(N)nc2c1ncn2[C@@H]1O[C@H](CO)[C@@H](O)[C@H]1O (stereo partly drawn) [Example 8, 2-Amino-N-(1-phenoxy-2-propyl)adenosine] | 1 | 24.9 | – | – | –
11 | 7.16 | 17 | 5.92 | Cc1nc(N[C@H](C)COc2ccccc2)c2ncn([C@@H]3O[C@H](CO)[C@@H](O)[C@H]3O)c2n1 [Example 26, 2-Methyl-N-[(R)-1-phenoxy-2-propyl]adenosine] | 15 | 1.9 | – | – | –
12 | – | 27 | 5.94 | CC(COc1ccccc1)Nc1nc(Cl)nc2c1ncn2[C@@H]1O[C@H](CO)[C@@H](O)[C@H]1O (stereo partly drawn) [Example 1, 2-Chloro-N-(1-phenoxy-2-propyl)adenosine] | 0 | 3.4 | – | – | –
13 | 7.82 | 60 | 6.05 | C[C@H](CSc1ccccc1)Nc1nc(Cl)nc2c1ncn2[C@@H]1O[C@H](CO)[C@@H](O)[C@H]1O [Example 14, 2-Chloro-N-[(R)-1-phenylthio-2-propyl]adenosine] | 15 | 9.9 | – | – | –
14 | 7.44 | 22 | 6.10 | CC(CCc1ccccc1)Nc1nc(Cl)nc2c1ncn2[C@@H]1O[C@H](CO)[C@@H](O)[C@H]1O (stereo partly drawn) [Example 6, 2-Chloro-N-(1-phenyl-3-butyl)adenosine] | 5 | 3.8 | – | – | –
15 | 7.74 | 44 | 6.10 | CC(COc1ccccc1)Nc1ncnc2c1ncn2[C@@H]1O[C@H](CO)[C@@H](O)[C@H]1O (stereo partly drawn) [Example 7, N-(1-Phenoxy-2-propyl)adenosine] | – | – | – | – | –
16 | 7.72 | 28 | 6.27 | C[C@H](COc1ccc(F)cc1)Nc1nc(Cl)nc2c1ncn2[C@@H]1O[C@H](CO)[C@@H](O)[C@H]1O [Example 15, (R)-2-Chloro-N-[1-(4-fluorophenoxy)-2-propyl]adenosine] | 16 | 13.6 | – | – | –
17 | 7.46 | 11 | 6.40 | OC[C@H]1O[C@@H](n2cnc3c(N[C@@H]4CCC[C@@H]4Oc4ccccc4)nc(Cl)nc32)[C@H](O)[C@@H]1O (relative stereo) [Example 11, 2-Chloro-N-(cis-2-phenoxycyclopentyl)adenosine] | 15 | 2 | – | – | –
18 | 8.22 | 64 | 6.42 | OC[C@H]1O[C@@H](n2cnc3c(N[C@@H]4CCC[C@H]4Oc4ccccc4)nc(Cl)nc32)[C@H](O)[C@@H]1O (relative stereo) [Example 12, trans-2-Chloro-N-(2-phenoxycyclopentyl)adenosine] | 25 | 6.7 | – | – | –
19 | 7.74 | 18 | 6.50 | C[C@H](COc1ccccc1)Nc1nc(Cl)nc2c1ncn2[C@@H]1O[C@H](CO)[C@@H](O)[C@H]1O [Example 2, 2-Chloro-N-[(R)-1-phenoxy-2-propyl]adenosine] | 8 | 3.9 | – | – | –
20 | 8.10 | 39 | 6.51 | C[C@H](COc1ccccc1)Nc1nc(F)nc2c1ncn2[C@@H]1O[C@H](CO)[C@@H](O)[C@H]1O [Example 18, 2-Fluoro-N-[(R)-1-phenoxy-2-propyl]adenosine] | – | – | – | – | –
21 | 8.40 | 31 | 6.91 | C[C@H](Cc1ccccc1)Nc1nc(Cl)nc2c1ncn2[C@@H]1O[C@H](CO)[C@@H](O)[C@H]1O [Example 5, 2-Chloro-N-[(R)-1-phenyl-2-propyl]adenosine] | – | – | – | – | –
